For one series, the system named is mouse model of TEN. Description: Smac mimetic TEN mouse model.
The subject of the next series is primary keratinocytes. Put plainly: Live-cell imaging co-culture assay of patient-derived keratinocytes with matched PBMCs.
The conditions of series [1]: cited from earlier work.
Another series concerns DRESS. The settings on record: earlier report; cited from earlier work.

Entries after “also recorded” stand apart in the source; their conditions may differ.

The text below walks through data of patent EP4506005A1, “JAK-INHIBITOR FOR THE TREATMENT OF TEN, SJS AND SJS/TEN OVERLAP” (Max-Planck-Gesellschaft zur Förderung der Wissenschaften …, priority 2023, dated 2025).

Excerpt for primary keratinocytes: Concurrently, patient-matched PBMCs were isolated and activated using CD3/28. After five days, the keratinocytes were fluorescently labeled and co-cultured with activated or resting PBMCs. A fluorescent DNA-binding dye was introduced to identify cells with compromised membrane integrity, in order to visualize, track and quantify the cytotoxic action of activated PBMCs towards keratinocytes using live-cell imaging.
PBMCs were isolated using Ficol according to standard protocol. Cells were frozen in liquid nitrogen until further usage.
Patient PBMCs (200'000 / well / 200 µl) were stimulated in U-shape 96-well plates in the presence or absence of CD3/28 (Gibco Dynabeads, #11161D) at a ratio of 1:1, in X-VIVO 15 (Lonza, #881026) for 5 days at 37 °C / 5% CO2. On day 4 of PBMC stimulation, hair-follicle derived keratinocytes from the same patient were plated on Collagen-I coated 96-well plates at a density of 5'000 - 10000 / well (depending on the proliferation rate, patient specific). On day 5 of PBMC stimulation, keratinocytes were fluorescently labeled (Celltracker Red; Invitrogen #C34552) according to the manufacturer's recommendation. Activated or non-activated ("resting") PBMCs were then added to the keratinocytes at a ratio of 1:1, after magnetic removal of CD3/28 beads where necessary. Tofacitinib (CST, #14703) or control (DMSO) was added in the indicated concentration as well as Celltox Green (Promega, G8731, 1:8000 final dilution) to reach a final volume of 200 µl per well. Every 2 hours images were acquired using a live cell analysis system (Incucyte Sx3, Sartorius) for 72 hours at 37 °C / 5% CO2. Quantification of dead keratinocytes (Celltox Green+ / Celltracker Red+) was performed using the proprietary analysis software (Incucyte, Sartorius).

Take `C[C@@H]1CCN(C(=O)CC#N)C[C@@H]1N(C)c1ncnc2[nH]ccc12` [Tofacitinib]: the “clinical and histological disease severity” value with mouse model of TEN (oral administration) is “ameliorated clinical and histological disease severity”. The “macroscopic disease severity (clinical assessment score: Nikolsky sign, edema, rubor)” value in the series with mouse model of TEN (oral gavage twice daily, Tofacitinib 30 mg/kg or Baricitinib 10 mg/kg, day 1 and 3 after s.c. smac mimetic injection) is on record as “markedly reduced macroscopic disease severity”. For the same molecule, the cell death result in the series on primary keratinocytes (Tofacitinib in combination with resting (non-activated) PBMCs) is listed as “no indications of increased cell death”. Besides, in the series on primary keratinocytes (co-culture of primary keratinocytes with CD3/28 activated PBMCs from the same TEN patient, ratio 1:1, Tofacitinib 50 or 5 (nmol/nM), imaging every 2h for 72 hours, Celltox Green positive keratinocytes), the keratinocyte cytotoxicity entry was “reduced keratinocyte-directed cytotoxicity; also recorded: able to dampen the keratinocyte mediated cytotoxicity; also recorded: ameliorates T-cell mediated keratinocyte cytotoxicity; also recorded: dose-dependent inhibition of keratinocyte cytotoxicity”. Further, the keratinocyte cell death entry with primary keratinocytes (keratinocytes exposed to Tofacitinib alone) was “did not induce keratinocyte cell death”. The “peak plasma concentrations achieved (time after administration)” value in series [1] is 30 to 60 min. The “therapeutic intervention in DRESS” value in the series on DRESS is “successful”.
